Measurements: patent US20040043432A1, “Compounds targeted to cellular locations” (priority 2000, published 2004)
“Also recorded” adds a separate entry of the source.

How the values were obtained:
Raji cells = assay: confocal microscopy of intracellular localization; format: cell-based; conditions: confocal microscope, added singly or with raft markers
Protocol: For confocal microscopy, cells were treated with a variety of compounds and antibodies as described above. The cells were fixed and mounted as described and visualised using an Axiophot microscope (Carl Zeiss) coupled to a Colour Coolview CCD colour camera. Filter settings for the simultaneous detection of red and green fluorescence were used. The digital images were processed using Photoshop software (Adobe Systems). Cell images were obtained that visualised either the surface of the cell or cell sections.
This example follows the same procedure as described in example 13 with the following modifications. In certain experiments, lipid raft targeted compounds were added to the cells either singly, or in combination with other compounds. The compounds were then visualized with fluorescent antibodies or in the case of APT2104 and APT2105 by their intrinsic fluorescence, in each case using a confocal microscope as described in methods.

[1] = test system: lipid rafts on Raji cells; assay: fluorescence microscopy colocalisation with lipid raft markers; format: cell-based; conditions: 60 min at 37C, APT2104 with endogenous CD59, APT2105 and APT070 with FITC-CTB
[2] = test system: classical pathway-mediated haemolysis of sheep erythrocytes; conditions: described in WO 98/02454; cited from earlier work
[3] = test system: complement-mediated lysis by human serum; assay: haemolytic assay (1:400 dilution of human serum); format: cell-based; conditions: read-out: concentration required to bring about 50% inhibition of lysis (IH50)
Description: APT530 is a protein that comprises the short consensus repeats 1,2,3 and 4 of human CD55 (decay accelerating factor, DAF), with a carboxyl terminal cysteine residue expressed in a recombinant form in E. coli cells. cDNA that encoded human DAF mRNA was generated from total brain RNA as described in Example 9. A plasmid to encode APT530 was generated by PCR using the pUC-DAF plasmid as template. Primers were designed to amplify the region of the DAF gene encoding amino acids 35-285 (SCR1-4). The 5′ primer incorporated an NdeI restriction enzyme site, and a codon specifying glutamine, thereby introducing an amino terminal methionine-glutamine amino acid pair. The 3′ primer added a carboxyl terminal cysteine residue and incorporated an EcoRI restriction enzyme site. The PCR product was cloned into the pUC57/T T-vector as described, sequenced, the insert excised with NdeI and EcoRI, and ligated into pET266 (Novagen, Madison, USA). The product of this ligation is the plasmid pET99-01, which expresses DAF (SCR1-4). pET99-01 DNA was introduced into E. coli HAMS113 (see methods) and expression of the recombinant protein induced as described in Example 1. The expression of APT530 was analysed by SDS-PAGE (described in methods). […] Refolded […] was analysed by SDSPAGE, Western blot and the effectiveness of the protein in a haemolytic assay (described in methods). […]

[4] = test system: complement-mediated lysis of guinea pig erythrocytes by human serum; assay: C5b6-initiated reactive lysis of erythrocytes; format: cell-based; conditions: reactive lysis assay
Protocol: C56 euglobulin was an essential reagent that was used for the C5b6-initiated reactive lysis of erythrocytes. C56 euglobulin was generated in and purified from some acute-phase sera from post-trauma individuals (such as sports injuries, surgery or childbirth). Blood was drawn from donors in the acute phase of inflammation and allowed to clot at room temperature. To each 10 mls of serum, 0.5 mls of yeast suspension was added and the mixture incubated overnight on a rotator at room temperature. The serum was centrifuged to remove the yeast and dialysed against 0.02M Na/K phosphate, pH 5.4. The precipitate (containing the C56 euglobulin) was collected by centrifugation and redisolved in 0.01M Na/K phosphate/0.05M NaCl, pH7.0 containing 25% v/v glycerol.
Guinea pig erythrocytes (TCS Microbiological, UK) were washed twice in PBS and resuspended to 5% by volume in PBS/0.05% CHAPS. 50 microL of these cells were placed in the wells of a round-bottomed microtitre plate. Samples to be tested were diluted in PBS/0.05% CHAPS and 50 microL of these test solutions then added to the wells containing the guinea pig erythrocytes. The plate was then incubated at 37 degrees Celsius for 20 minutes to allow binding of the samples to the erythrocytes. […] 100 microL of the supernatant was transferred to a clear flat bottomed microtitre plate and the absorbance at 410 nm measured spectroscopically. […]

Molecule | intracellular localization (intracellular fluorescence) (Raji cells) | co-localisation with lipid raft markers (FITC-CTB / endogenous CD59) [1] | IC50 [3] [nM] | further results
APT070: residues 1-196 of CR1 ([SCR1-3]-Cys) derivatised with myristoyl cationic peptide MSWP-1; WO 98/02454 example 8 [reference compound] | intracellular fluorescence was seen | co-localise; also recorded: discrete punctate pattern |  | anti-complement activity, potency relative to [SCR1-3]-Cys [2]: 100-1000 fold
N-Myristoyl Gly-Ser-Ser-Lys-Ser-Pro-Ser-Lys-Lys-Lys-Lys-Lys-Lys-Pro-Gly-Glu-Cys(S-succinimido Alexafluor™546 C5)-NH2 [APT2105] | intracellular fluorescence was seen | co-localise; also recorded: discrete punctate pattern |  | 
N-Myristoyl-Gly-Ser-Ser-Lys-Ser-Pro-Ser-Lys-Lys-Lys-Lys-Lys-Lys-Pro-Gly-Glu-Cys(S-succinimido Alexafluor™488 C5)-NH2 [APT2104] | intracellular fluorescence was seen | co-localise; also recorded: discrete punctate pattern |  | 
APT2334: APT530 linked to a single molecule of APT542 (MSWP-1) (SEQ ID No: 11) (conjugate, APT530 linked to APT542 (MSWP-1)) MQDCGLPPDVPNAQPALEGRTSFPEDTVITYKCEESFVKIPGEKDSVICLKGSQWSDIEEFCNRSCEVPTRLNSASLKQPYITQNYFPVGTVVEYECRPGYRREPSLSPKLTCLQNLKWSTAVEFCKKKSCPNPGEIRNGQIDVPGGILFGATISFSCNTGYKLFGSTSSFCLISGSSVQWSDPLPECREIYCPAPPQIDNGIIQGERDHYGYRQSVTYACNKGFTMIGEHSIYCTVNNDEGEWSGPPPECRGCCDGPKKKKKKSPSKSSG |  |  | 0.2 | 
APT530: short consensus repeats 1,2,3 and 4 of human CD55 (DAF) with a carboxyl terminal cysteine, expressed in E. coli (SEQ ID No: 10) (protein) MQDCGLPPDVPNAQPALEGRTSFPEDTVITYKCEESFVKIPGEKDSVICLKGSQWSDIEEFCNRSCEVPTRLNSASLKQPYITQNYFPVGTVVEYECRPGYRREPSLSPKLTCLQNLKWSTAVEFCKKKSCPNPGEIRNGQIDVPGGILFGATISFSCNTGYKLFGSTSSFCLISGSSVQWSDPLPECREIYCPAPPQIDNGIIQGERDHYGYRQSVTYACNKGFTMIGEHSIYCTVNNDEGEWSGPPPECRGC |  |  | ~40 | 
APT632: soluble CD59 from human urine (u-hCD59, Seq. ID No. 1) thiolated with 2-iminothiolane and linked to APT542 (conjugate, listed as Homo sapiens, thiolated with 2-iminothiolane, linked to APT542) LQCYNCPNPTADCKTAVNCSSDFDACLITKAGLQVYNKCWKFEHCNFNDVTTRLRENELTYYCCKKDLCNFNEQLEN |  |  |  | concentration at which guinea pig erythrocytes are protected from complement-mediated lysis by human serum [4]: greater than 0.5 nM
